Data on two molecules can be found in patent US4667027A, “Cephem compounds and their production” (Takeda Chemical Industries, Ltd., priority 1984, dated 1987).

Structures are written as SMILES. Converted amounts (≈) assume the structure as drawn.

The subject of one data set is cephalosporinase. The data set can be described thus: β-lactamase stability test, growth inhibition zone with cephalosporinase. The data set is classed as cell-based. As to conditions: cephalosporinase added; test organism Escherichia coli PG8; drug 100 μg/ml; nutrient agar pH 7.0. From the text:
(§1) TAN-591A, B, C are stable to various β-lactamases. The results of stability test of the antibiotic to two β-lactamases employing Escherichia coli PG8 as a test organism are shown in Table 5. […]

The next data set concerns Escherichia coli 0-111. Nature of the data set: Therapeutic effect to infectious disease in mice. The data set is classed as in vivo. As to conditions: Escherichia coli, 0111, sc. From the text: The therapeutic effect of TAN-592B.hydrochloride to infectious disease in mice is shown below.
*Intraperitoneal infection
The therapeutic effect of TAN-591A.hydrochloride to infectious disease in mice is shown below.

Data set [1] relates to Brevibacterium thiogenitalis ATCC 19240. The data set can be described thus: Antimicrobial spectrum, minimal inhibitory concentration (agar dilution). The data set is classed as cell-based. Particulars: Corynebacterium glutamicum, ATCC19240, hydrochloride, inoculum 1 loopful of about 10^6/ml. An excerpt: (§2) *Culture medium: 17.5 g of Bacto antibiotic medium 3 (Difco), 5 g of Bact
(§3) yeast extract (Difco), 20 g of Bacto agar (Difco), 1 l of distilled water
(§4) The amount of inoculated microorganism: 1 loopful of about 10^6 /ml o
(§5) microorganism suspension.
(§6) *Medium: Bacto antibiotic medium (Difco) 17.5 g, Bacto yeast extract
(§7) (Difco) 5 g, Bacto agar (Difco) 20 g, distilled water 1 l, pH not

Data set [2] concerns Escherichia coli NIHJ JC-2. Described as above. Type of data set: cell-based. As to conditions: NIHJJC2, hydrochloride, inoculum 1 loopful of about 10^6/ml.
Excerpt: as §2, §3, §4, §5, §6, §7

Data set [3] concerns Alcaligenes faecalis IFO 13111. The data set is described as above. Type of data set: cell-based. As to conditions: IFO13111, hydrochloride, inoculum 1 loopful of about 10^6/ml.
Excerpt: as §2, §3, §4, §5, §6, §7

Data set [4] deals with Bacillus subtilis NIHJ PCI 219. Described as above. The data set is classed as cell-based. As to conditions: hydrochloride, inoculum 1 loopful of about 10^6/ml.
Excerpt: as §2, §3, §4, §5, §6, §7

In data set [5] the test system is Salmonella typhimurium IFO 12529. The data set is described as above. Type of data set: cell-based. Particulars: Salmonella enterica, hydrochloride, inoculum 1 loopful of about 10^6/ml.
Excerpt: as §2, §3, §4, §5, §6, §7

In data set [6] the test system is Citrobacter freundii IFO 12681. Described as above. The data set is classed as cell-based. As to conditions: IFO12681, hydrochloride, inoculum 1 loopful of about 10^6/ml.
Excerpt: as §2, §3, §4, §5, §6, §7

In data set [7] the test system is Bacillus megaterium IFO 12108. The data set is described as above. The data set is classed as cell-based. As to conditions: Priestia megaterium, IFO12108, hydrochloride, inoculum 1 loopful of about 10^6/ml.
Excerpt: as §2, §3, §4, §5, §6, §7

Data set [8] deals with Staphylococcus aureus FDA 209P. Described as above. As to conditions: FDA209P, hydrochloride, inoculum 1 loopful of about 10^6/ml. The data set is classed as cell-based.
Excerpt: as §2, §3, §4, §5, §6, §7

The test system of data set [9] is Proteus vulgalis IFO 3988. Described as above. The data set is classed as cell-based. Particulars: hydrochloride, inoculum 1 loopful of about 10^6/ml.
Excerpt: as §2, §3, §4, §5, §6, §7

Data set [10] concerns Serratia marcescens IFO 12648. Described as above. Particulars: IFO12648, hydrochloride, inoculum 1 loopful of about 10^6/ml. The data set is classed as cell-based.
Excerpt: as §2, §3, §4, §5, §6, §7

Data set [11] concerns Pseudomonas aeruginosa IFO 3080. The data set is described as above. Particulars: IFO3080, hydrochloride, inoculum 1 loopful of about 10^6/ml. The data set is classed as cell-based.
Excerpt: as §2, §3, §4, §5, §6, §7

In data set [12] the test system is Acinetobacter calcoaceticus IFO 12552. Described as above. Particulars: IFO12552, hydrochloride, inoculum 1 loopful of about 10^6/ml. Type of data set: cell-based.
Excerpt: as §2, §3, §4, §5, §6, §7

Data set [13] deals with Klebsiella pneumoniae IFO 3317. Described as above. The data set is classed as cell-based. Particulars: IFO3317, hydrochloride, inoculum 1 loopful of about 10^6/ml.
Excerpt: as §2, §3, §4, §5, §6, §7

The subject of a further data set is Escherichia coli PG8. The data set can be described thus: β-lactamase stability test, growth inhibition zone, no β-lactamase added. The data set is classed as cell-based. As to conditions: β-lactamase not added; test organism Escherichia coli PG8; drug 100 μg/ml; nutrient agar pH 7.0; read-out: diameter of growth inhibition zone.
Excerpt: as §1

Another data set can be described thus: Solubility in solvents. The data set is classed as physicochemical. Particulars: hydrochloride.
Data set [14] can be described thus: Toxicity after subcutaneous administration to mice. Type of data set: in vivo. As to conditions: dose of 1 g/kg, hydrochloride. The protocol:
When Antibiotic TAN-592B hydrochloride was administered subcutaneously in a dose of 1 g/kg to mice, no death was observed, and therefore Antibiotic TAN-592 is considered to be low in toxicity.
When Antibiotic TAN-591A hydrochloride was administered subcutaneously a dose of 1 g/kg to mice, no death was observed, and therefore Antibiotic TAN-591 is considered to be low in toxicity.

For a further data set, the system named is penicillinase. Nature of the data set: β-lactamase stability test, growth inhibition zone with penicillinase. The data set is classed as cell-based. As to conditions: penicillinase added; test organism Escherichia coli PG8; drug 100 μg/ml; nutrient agar pH 7.0.
Excerpt: as §1

[15] abbreviates: dimethylsulfoxide, methanol, acetone, ethyl acetate.
[16] abbreviates: water, aqueous acetone, aqueous alcohol.

For the molecule `N=C(N)NCCCC(NC(=O)C(CO)NC(=O)C(N)CO)C(O)CC(=O)OCC1=C(C(=O)O)N2C(=O)C(NC=O)(NC(=O)CCCC(N)C(=O)O)C2SC1` (stereo not shown) [TAN-592B], the “diameter of growth inhibition zone” value in the data set on cephalosporinase and in the data set with penicillinase was 29 mm each time. Further, the median effective dose (ED50) in the data set on Escherichia coli 0-111 was 16.2 mg/kg. In addition, the minimal inhibitory concentration (MIC) in data set [1] is 6.25 µg/mL (≈ 7.9 µM); in data set [2], 25 µg/mL (≈ 31.6 µM); in [3] it was 6.25 µg/mL (≈ 7.9 µM); in data set [4] it was 12.5 µg/mL (≈ 15.8 µM); in data set [5], 25 µg/mL (≈ 31.6 µM); in data set [6], 25 µg/mL (≈ 31.6 µM). For the same molecule, the MIC in [7] is 12.5 µg/mL (≈ 15.8 µM); in [8] it was more than 50 µg/mL; in data set [9], 12.5 µg/mL (≈ 15.8 µM); in data set [10], 25 µg/mL (≈ 31.6 µM); in data set [11], more than 50 µg/mL; in data set [12] it was 1.56 µg/mL (≈ 1.97 µM). Also, the minimum inhibitory concentration (MIC) in data set [13] amounted to 50 µg/mL (≈ 63.2 µM). For the same molecule, the zone of inhibition at 100 µg/mL in the data set on Escherichia coli PG8 is 29 mm. Besides, the figures for the Solubility result in the data set “Solubility in solvents” (setting [15]) and in the data set “Solubility in solvents” (setting [16]) were “Sparingly soluble” and “Easily soluble”, respectively. Further, in data set [14], the death entry is “no death”.
In the case of `NCCCCC(NC(=O)C(N)CO)C(O)CC(=O)OCC1=C(C(=O)O)N2C(=O)C(NC=O)(NC(=O)CCCC(N)C(=O)O)C2SC1` (stereo not shown) [TAN-591A], the “diameter of growth inhibition zone” value in the data set with cephalosporinase and in the data set with penicillinase was 22 mm throughout. Also, the ED50 in the data set with Escherichia coli 0-111 came to 16.2 mg/kg. For the same molecule, the minimal inhibitory concentration (MIC) in data set [1] amounted to 6.25 µg/mL (≈ 9.25 µM); in data set [2], 25 µg/mL (≈ 37 µM); in data set [3] it was 6.25 µg/mL (≈ 9.25 µM); in [4] it was 12.5 µg/mL (≈ 18.5 µM); in data set [5] it was 25 µg/mL (≈ 37 µM); in [6], 50 µg/mL (≈ 74 µM). Further, the MIC in data set [7] was 12.5 µg/mL (≈ 18.5 µM); in [8], more than 100 µg/mL; in data set [9], 25 µg/mL (≈ 37 µM); in data set [10], 25 µg/mL (≈ 37 µM); in data set [11], 100 µg/mL (≈ 148 µM); in data set [12], 1.56 µg/mL (≈ 2.31 µM). Moreover, 50 µg/mL (≈ 74 µM) was the least that counted as inhibitory in [13] (MIC). For the same molecule, in the data set with Escherichia coli PG8, the zone of inhibition at 100 µg/mL was found to be 22.5 mm. Also, the Solubility entry is on record as “Sparingly soluble” in the data set “Solubility in solvents” (setting [15]) and “Easily soluble” in “Solubility in solvents” (setting [16]). Further, the death entry in data set [14] was “no death”.
